# Data from patent US4415567A, “7α-Methoxycephalosporin derivatives, and antibacterial drugs containing the same” (Eisai Co., Ltd., priority 1980, dated 1983).
# Structures can show the parent of a compound that is named as a salt.
# Key:
# [1] = acute toxicity, LD50 (mouse, oral); settings: in vivo
# Description: The acute toxicity values [LD50 (mouse, oral)] for the following compounds of this invention were over 5 g/kg: […]
# Proteus morganii EP-14 = test: MIC, standard agar dilution method, Proteus morganii EP-14; assay type: cell-based; settings: Morganella morganii, EP14, Mueller Hinton agar, 18 hours, 37° C.
# Procedure: (§1) Minimal inhibitory concentration (MIC) was determined by the standard agar dilution method of the Japan Society of Chemotherapy.
# (§2) Compounds were dissolved in appropriate solvents (sterilized water for sodium salts and acetone-water [1:1] for free acids) and serial two-fold dilutions were made. Sodium salt of Cefazolin was chosen as the control compound.
# (§3) One-ml aliquots of each dilution were mixed with 9 ml of Mueller Hinton gar in petri-dishes to make agar plates containing the compound at serially diluted concentrations. After agar hardened, plates were put in an incubator at 37° C. for 1.5-2 hours with the lids slightly open to evaporate acetone off the plates.
# (§4) Test organisms were grown for 18 hours at 37° C. in Trypticase Soy broth and diluted in saline to approximately 10^6 colony forming units per ml. A loopful of each cell suspension was applied on the agar plate mentioned above and the plates were incubated for 18 hours at 37° C. before MIC was determined.
# (§5) The results are shown in Table 2, wherein the compound of Example 5 was selected and used in a form of free carboxylic acid as set forth in the Example 5, Item (a).
# [2] = tested on: Staphylococcus aureus 209-P; test: MIC, standard agar dilution method, Staphylococcus aureus 209-P; assay type: cell-based; settings: Mueller Hinton agar, 18 hours, 37° C.
# Procedure: as §1, §2, §3, §4, §5
# [3] = tested on: Klebsielle pneumoniae EK-6; test: MIC, standard agar dilution method, Klebsielle pneumoniae EK-6; assay type: cell-based; settings: Klebsielle pneumoniae EK-6; Mueller Hinton agar, 18 hours, 37° C.; read-out: MIC
# Procedure: as §1, §2, §3, §4, §5
# Proteus bulgaris E-18 = test: MIC, standard agar dilution method, Proteus bulgaris E-18; assay type: cell-based; settings: Mueller Hinton agar, 18 hours, 37° C.
# Procedure: as §1, §2, §3, §4, §5
# [4] = tested on: Serratia marcescens ES-75; test: MIC, standard agar dilution method, Serratia marcescens ES-75; assay type: cell-based; settings: ES75, Mueller Hinton agar, 18 hours, 37° C.
# Procedure: as §1, §2, §3, §4, §5
# [5] = tested on: Pseudomonas aeruginosa EP-172; test: MIC, standard agar dilution method, Pseudomonas aeruginosa EP-172; assay type: cell-based; settings: EP172, Mueller Hinton agar, 18 hours, 37° C.
# Procedure: as §1, §2, §3, §4, §5
# Escherichia coli NIHJ = test: MIC, standard agar dilution method, Escherichia coli NIHJ; assay type: cell-based; settings: Escherichia coli NIHJ; Mueller Hinton agar, 18 hours, 37° C.; read-out: MIC
# Procedure: as §1, §2, §3, §4, §5
SMILES,MIC (Proteus morganii EP-14) [mg/L],MIC [2] [mg/L],MIC [3] [mg/L],MIC (Proteus bulgaris E-18) [mg/L],MIC [4] [mg/L],MIC [5] [mg/L],MIC (Escherichia coli NIHJ) [mg/L],LD50 [1] [mg/kg]
"CO[C@@]1(NC(=O)[C@H](NC(=O)c2coc3cc(O)c(O)cc3c2=O)c2ccc(O)cc2)C(=O)N2C(C(=O)O)=C(CSc3nnc(C)s3)CS[C@@H]21 [7β-[D-2-(6,7-Dihydroxychromone-3-carboxamido)-2-(4-hydroxyphenyl)acetamido]-7α-methoxy-3-[5-methyl-2-(1,3,4-thiadiazolyl)]thiomethyl-3-cephem-4-carboxylic acid]",–,–,–,–,–,–,–,> 5000
"CO[C@@]1(NC(=O)[C@H](NC(=O)c2coc3cc(O)c(O)cc3c2=O)c2ccc(O)cc2)C(=O)N2C(C(=O)O)=C(CSc3nnnn3C)CS[C@@H]21 [Example 3, 7β-[D-2-(6,7-Dihydroxychromone-3-carboxamido)-2-(4-hydroxyphenyl)acetamido]-7α-methoxy-3-(1-methyl-5-tetrazolyl)thiomethyl-3-cephem-4-carboxylic acid]",3.13,3.13,≤ 0.1,0.8,≤ 0.1,0.8,0.4,> 5000
"CO[C@@]1(NC(=O)[C@H](NC(=O)c2coc3cc(O)c(O)cc3c2=O)c2ccc(O)cc2)C(=O)N2C(C(=O)O)=C(CSc3nnnn3CC(=O)O)CS[C@@H]21 [Example 16, 7β-[D-2-(6,7-Dihydroxychromone-3-carboxamido)-2-(4-hydroxyphenyl)acetamido]-7α-methoxy-3-1-carboxymethyl-5-tetrazolyl)thiomethyl-3-cephem-4-carboxylic acid disodium salt]",–,–,–,–,–,–,–,> 5000
"CCOC(=O)Oc1cc2occ(C(=O)N[C@@H](C(=O)N[C@]3(OC)C(=O)N4C(C(=O)O)=C(CSc5nnnn5CC(=O)OC)CS[C@@H]43)c3ccc(O)cc3)c(=O)c2cc1OC(=O)OCC [Example 20, 7β-[D-2-(6,7-Bis(ethoxycarbonyloxy)chromone-3-carboxamido)-2-(4-hydroxyphenyl)acetamido]-7α-methoxy-3-(1-methoxycarbonylmethyl-5-tetrazolyl)thiomethyl-3-cephem-4-carboxylic acid]",6.25,6.25,≤ 0.1,0.8,0.2,0.4,3.13,> 5000
"CO[C@@]1(NC(=O)[C@H](NC(=O)c2coc3cc(OC(=O)OCC(Cl)(Cl)Cl)c(OC(=O)OCC(Cl)(Cl)Cl)cc3c2=O)c2ccc(O)cc2)C(=O)N2C(C(=O)O)=C(CSc3nnnn3C)CS[C@@H]21 [Example 23, 7β-[D-2-(6,7-Bis(2,2,2-trichloroethoxycarbonyloxy)chromone-3-carboxamido)-2-(4-hydroxyphenyl)-acetamido]-7α-methoxy-3-(1-methyl-5-tetrazolyl)thiomethyl-3-cephem-4-carboxylic acid]",6.25,3.13,≤ 0.1,0.8,0.2,0.8,6.25,> 5000
"CO[C@@]1(NC(=O)[C@H](NC(=O)c2coc3cc(OC(=O)OCC(Cl)(Cl)Cl)c(OC(=O)OCC(Cl)(Cl)Cl)cc3c2=O)c2ccccc2)C(=O)N2C(C(=O)O)=C(COC(C)=O)CS[C@@H]21 [Example 24, 7β-[D-2-(6,7-Bis(2,2,2-trichloroethoxy-carbonyloxy)chromon-3-carboxamido)2-phenylacetamido]-7α-methoxy-3-acetoxymethyl-3-cephem-4-carboxylic acid]",25,6.25,≤ 0.1,3.13,0.8,1.56,12.5,–
"CO[C@@]1(NC(=O)[C@H](NC(=O)c2coc3cc(OC(=O)OCC(Cl)(Cl)Cl)c(OC(=O)OCC(Cl)(Cl)Cl)cc3c2=O)c2ccc(O)cc2)C(=O)N2C(C(=O)O)=C(COC(C)=O)CS[C@@H]21 [Example 25, 7β-[D-2-(6,7-Bis(2,2,2-trichloroethoxycarbonyloxy)chromone-3-carboxamido)-2-(4-hydroxyphenyl)acetamido]-7α-methoxy-3-acetoxymethyl-3-cephem-4-carboxylic acid]",25,3.13,≤ 0.1,3.13,0.8,0.8,12.5,–
"COC(=O)Cn1nnnc1SCC1=C(C(=O)O)N2C(=O)[C@](NC(=O)[C@H](NC(=O)c3coc4cc(OC(=O)OCC(Cl)(Cl)Cl)c(OC(=O)OCC(Cl)(Cl)Cl)cc4c3=O)c3ccc(O)cc3)(OC)[C@H]2SC1 [Example 26, 7β-[D-2-(6,7-Bis(2,2,2-trichloroethoxycarbonyloxy)chromone-3-carboxamido)-2-(4-hydroxyphenyl)acetamido]-7α-methoxy-3-(1-methoxycarbonylmethyl-5-tetrazolyl)thiomethyl-3-cephem-4-carboxylic acid]",6.25,12.5,≤ 0.1,0.8,0.2,1.56,6.25,–
"CO[C@@]1(NC(=O)[C@H](NC(=O)c2coc3cc(O)c(O)cc3c2=O)c2ccc(O)cc2)C(=O)N2C(C(=O)O)=C(CSc3nnc(CC(=O)O)o3)CS[C@@H]21 [Example 29, 7β-[D-2-(6,7-Dihydroxychromone-3-carboxamido)-2-(4-hydroxyphenyl)acetamido]-7α-methoxy-3-[5-carboxymethyl-2-(1,3,4-oxadiazolyl)]thiomethyl-3-cephem-4-carboxylic acid]",25,6.25,≤ 0.1,3.13,0.8,0.8,12.5,–
"CO[C@@]1(NC(=O)[C@H](NC(=O)c2coc3cc(O)c(O)cc3c2=O)c2ccc(O)cc2)C(=O)N2C(C(=O)O)=C(CSc3nncs3)CS[C@@H]21 [Example 33, 7β-[D-2-(6,7-Dihydroxychromone-3-carboxamido)-2-(4-hydroxyphenyl)acetamido]-7α-methoxy-3-[2-(1,3,4-thiadiazolyl)]thiomethyl-3-cephem-4-carboxylic acid]",25,1.56,≤ 0.1,1.56,0.2,0.4,6.25,–

# The next lines start with results.
MIC (Proteus morganii EP-14) [mg/L],MIC [2] [mg/L],MIC [3] [mg/L],MIC (Proteus bulgaris E-18) [mg/L],MIC [4] [mg/L],MIC [5] [mg/L],MIC (Escherichia coli NIHJ) [mg/L],SMILES,LD50 [1] [mg/kg]
6.25,3.13,≤ 0.1,0.8,0.2,0.8,3.13,"CCOC(=O)Oc1cc2occ(C(=O)N[C@@H](C(=O)N[C@]3(OC)C(=O)N4C(C(=O)O)=C(CSc5nnnn5CC(=O)O)CS[C@@H]43)c3ccc(O)cc3)c(=O)c2cc1OC(=O)OCC [Example 27, 7β-[D-2-(6,7-Bis(ethoxycarbonyloxy)chromone-3-carboxamido)-2-(4-hydroxyphenyl)acetamido]-7α-methoxy-3-(1-carboxymethyl-5-tetrazolyl)thiomethyl-3-cephem-4-carboxylic acid]",–
12.5,3.13,≤ 0.1,1.56,0.4,0.8,3.13,"CO[C@@]1(NC(=O)[C@H](NC(=O)c2coc3cc(O)c(O)cc3c2=O)c2ccc(O)cc2)C(=O)N2C(C(=O)O)=C(CSc3nnc(CC(=O)O)s3)CS[C@@H]21 [Example 28, 7β-[D-2-(6,7-Dihydroxychromone-3-carboxamido)-2-(4-hydroxyphenyl)acetamido]-7α-methoxy-3-[5-carboxymethyl-2-(1,3,4-thiadiazolyl)]thiomethyl-3-cephem-4-carboxylic acid]",–
25,3.13,≤ 0.1,3.13,0.4,0.8,12.5,"CO[C@@]1(NC(=O)[C@H](NC(=O)c2coc3cc(O)c(O)cc3c2=O)c2ccc(O)cc2)C(=O)N2C(C(=O)O)=C(CSc3nnnn3CCN(C)C)CS[C@@H]21 [Example 31, 7β-[D-2-(6,7-Dihydroxychromone-3-carboxamido)-2-(4-hydroxyphenyl)acetamido]-7α-methoxy-3-[1-[2-(N,N-dimethylamino)ethyl]-5-tetrazolyl]thiomethyl-3-cephem-4-carboxylic acid]",–
12.5,1.56,≤ 0.1,1.56,0.2,0.4,3.13,"CCn1nnnc1SCC1=C(C(=O)O)N2C(=O)[C@](NC(=O)[C@H](NC(=O)c3coc4cc(O)c(O)cc4c3=O)c3ccc(O)cc3)(OC)[C@H]2SC1 [Example 32, 7β-[D-2-(6,7-Dihydroxychromone-3-carboxamido)-2-(4-hydroxyphenyl)acetamido]-7α-methoxy-3-(1-ethyl-5-tetrazolyl)thiomethyl-3-cephem-4-carboxylic acid]",–
